Reference: PMC12281142, “A potent phenylalkylamine disrupts mycobacterial membrane bioenergetics and augments bactericidal activity of bedaquiline” (iScience, 2025)
In brackets after ≈: the same amount, converted by molar mass. Read-outs that look alike come from different tables or passages of the source.

System: M. bovis BCG
Test: microbe, parasite or virus in culture
Type: cell-based, Mycobacterium bovis BCG

## COc1ccc(CCN(C)CCCC(C#N)(c2ccc(Cl)cc2)C2CCCCC2)cc1OC (stereo not shown) [PhA14]
  MIC50: 19 µM (≈ 8.91 µg/mL)
  MIC90: 35 µM (≈ 16.4 µg/mL)
  MIC90 (Table S1): 35 µM (≈ 16.4 µg/mL)

## COc1ccc(CCN(C)CCCC(C#N)(CC2CCCCC2)c2ccc(Cl)cc2)cc1OC (stereo not shown) [PhA15]
  MIC50: 21 µM (≈ 10.1 µg/mL)
  MIC90: 37 µM (≈ 17.9 µg/mL)
  MIC90 (Table S1): 37 µM (≈ 17.9 µg/mL)

## COc1ccc(C(C#N)(CC=C(C)CCC=C(C)C)CCCN2CCN(C(c3ccccc3)c3ccccc3)CC2)cc1OC (stereo not shown) [PhA16]
  MIC50: 29 µM (≈ 17.6 µg/mL)
  MIC90: 46 µM (≈ 27.9 µg/mL)
  MIC90 (Table S1): 46 µM (≈ 27.9 µg/mL)

## COc1ccc(C(C#N)(CCCn2c(C)nc3ccccc32)C(C)C)cc1OC (stereo not shown) [PhA17]
  MIC90 (Table S1): > 250 µM

## COc1ccc(C(C#N)(CCCn2c(N)nc3ccccc32)C(C)C)cc1OC (stereo not shown) [PhA18]
  MIC90 (Table S1): 155 µM (≈ 60.8 µg/mL)

## COc1ccc(C(C#N)(CCCN2CCN(c3ccccc3Cl)CC2)C(C)C)cc1OC (stereo not shown) [PhA19]
  MIC90 (Table S1): 73 µM (≈ 33.3 µg/mL)

## COc1ccc(C(C#N)(CCCN2CCN(c3ccccc3OC)CC2)C(C)C)cc1OC (stereo not shown) [PhA20]
  MIC90 (Table S1): 163 µM (≈ 73.6 µg/mL)

## COc1ccc(C(C#N)(CCCN2CCN(c3cccc(O)c3)CC2)C(C)C)cc1OC (stereo not shown) [PhA21]
  MIC90 (Table S1): > 250 µM

## COc1ccc(CCN(C)CCCC(C#N)(c2cc(OC)c(OC)c(OC)c2)C(C)C)cc1OC (stereo not shown) [PhA52, gallopamil, reference compound]
M. bovis BCG, broth dilution
  MIC90 (Table S1): > 250 µM

## COc1cccc(CCN(C)CCCC(C#N)(c2ccc(OC)c(OC)c2)C(C)C)c1 (stereo not shown) [PhA57, devapamil, reference compound]
Mycobacterium tuberculosis variant bovis BCG, BCG, read-out: MIC90 (Table S1), M. bovis BCG, broth dilution
  MIC90: 180 µM (≈ 76.4 µg/mL)

## CC(C)C(C#N)(CCCN(C)CCc1ccc(Cl)c(Cl)c1)c1ccc(Cl)c(Cl)c1 (stereo not shown) [PhA66]
  MIC50: 56 µM (≈ 26.4 µg/mL)

## carbonyl cyanide m-chlorophenyl hydrazine [CCCP, reference compound]
  MIC90: 50 µM
  MIC90 BCG: 10 mg/L
